The values below are quoted from earlier work in patent US20220000967A1, “SYNTHETIC PEPTIDES INDUCING IMMUNOGENIC CELL DEATH” (SORBONNE UNIVERSITE, priority 2018, published 2022).

This data set has as its system murine B78 melanoma cells. The settings on record: melphalan killed B78 cells injected, re-challenged 10 days later with B78 viable cells; cited from earlier work.

With `N[C@@H](Cc1ccc(N(CCCl)CCCl)cc1)C(=O)O` [melphalan], the mice without tumor is 40%.
